{
  "source": "patent US20240376153A1",
  "about": "“CNP CYCLIC PEPTIDE, AND MEDICINE, EXTERNAL PREPARATION AND COSMETIC EACH CONTAINING SAID CYCLIC PEPTIDE” (Igisu Co., Ltd., priority 2015, published 2024)",
  "key": {"[1]": {"tested_on": "affected site of psoriasis", "assay": "Effect of C-ring / CNP gel formulation on psoriasis", "format": "in vivo, human", "details": "psoriasis patient P6; after 3 days from the application", "description": "Followings are the summary of the therapeutic effects for psoriasis cases. As described above, the C-ring gel formulation was applied to the affected site of psoriasis, and changes in symptoms before and after the application were observed. When possible, as a comparative example, the CNP gel formulation described above was applied onto another affected site of the same subject where the C-ring gel formulation had not been applied, and changes in symptoms before and after the application were observed. Examination result is given in tables below with subjects' age, sex and symptoms, and prescription for the subjects."}, "[2]": {"tested_on": "normal subjects who have symptoms of lip roughness", "assay": "Lip mucosal condition after application of C-ring gel formulation", "format": "in vivo, human", "details": "lip roughness (cases I1-I5); 1 μM, 1 application", "description": "To normal subjects who have symptoms of lip roughness, the C-ring gel formulation was applied and changes in lip mucosal conditions were observed and summarized in the following table. Changes in the mucosal condition were judged based on based on cenesthesic evaluation by the subject and objective observation by the inventor as a physician."}},
  "note": "Positions of bridges follow the written chain, without caps; N, C: chain ends. No end group written: not given here.",
  "data": [
    {"substance": "Gly-Leu-Ser-Lys-Gly-Cys-Phe-Gly-Leu-Lys-Leu-Asp-Arg-Ile-Gly-Ser-Met-Ser-Gly-Leu-Gly-Cys (GLSKGCFGLKLDRIGSMSGLGC; disulfide 6-22; listed as Homo sapiens) [CNP, human wild-type C-type natriuretic peptide (American Peptide Company)]", "values": [
      {"measurement": "Results of two-sided application on lower thighs (FIG. 1)", "setting": "[1]", "result": "scales became inconspicuous but still remains, and erythema and infiltration were improved only a little"},
      {"measurement": "Post-application Symptoms", "setting": "[2]", "result": "remained on corner of mouth."}
    ]}
  ]
}
